Source: patent US9309224B2 (Deciphera Pharmaceuticals, LLC, priority 2013, dated 2016)

What was measured:
[1] = test system: M-NFS-60 cells; experiment: M-NFS-60 cell proliferation assay; assay type: cell-based; conditions: 67 h incubation, resazurin
Procedure: M-NFS-60 Cell Proliferation Assay A serial dilution of test compound was dispensed into a 384-well black clear bottom plate (Corning, Corning, N.Y.). Two thousand five hundred cells were added per well in 50 μL complete growth medium. […] IC50 values were calculated from a series of percent inhibition values determined at a range of inhibitor concentrations using software routines as implemented in the GraphPad Prism software package.

[2] = biological target: T1, unphosphorylated c-FMS kinase (uFMS, Seq. ID no. 1) (Homo sapiens, UniProt P07333); experiment: uFMS kinase assay (pyruvate kinase/lactate dehydrogenase coupled); assay type: biochemical; conditions: ATP 500 μM
T1 construct: purchased Millipore
T1 sequence (P07333 538-972): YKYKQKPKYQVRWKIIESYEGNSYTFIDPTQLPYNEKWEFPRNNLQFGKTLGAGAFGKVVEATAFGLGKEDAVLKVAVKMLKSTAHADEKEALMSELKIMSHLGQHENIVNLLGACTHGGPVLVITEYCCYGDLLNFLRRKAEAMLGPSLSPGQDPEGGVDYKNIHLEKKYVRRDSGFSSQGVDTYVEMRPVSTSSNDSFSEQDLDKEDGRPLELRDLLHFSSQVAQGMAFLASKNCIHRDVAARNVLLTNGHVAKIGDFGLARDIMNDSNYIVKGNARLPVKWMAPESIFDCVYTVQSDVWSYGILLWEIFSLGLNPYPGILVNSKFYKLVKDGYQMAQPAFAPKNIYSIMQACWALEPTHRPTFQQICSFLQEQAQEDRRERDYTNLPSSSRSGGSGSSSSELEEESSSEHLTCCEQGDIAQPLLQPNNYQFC
Procedure: In this assay, the oxidation of NADH (thus the decrease at A340 nm) was continuously monitored spectrophometrically. The reaction mixture (100 μL) contained FMS (purchased from Millipore) (10 nM), polyE4Y (1 mg/mL), MgCl2 (10 mM), pyruvate kinase (4 units), lactate dehydrogenase (0.7 units), phosphoenol pyruvate (1 mM), NADH (0.28 mM) and ATP (500 μM) in 90 mM Tris buffer containing 0.2% octyl-glucoside and 1% DMSO, pH 7.5. The inhibition reaction was started by mixing serial diluted test compound with the above reaction mixture. The absorption at 340 nm was monitored continuously for 4 hours at 30° C. on Synergy 2 plate reader. The reaction rate was calculated using the 3 to 4 h time frame. Percent inhibition was obtained by comparison of reaction rate with that of a control (i.e. in the absence of test compound). IC50 values were calculated from a series of percent inhibition values determined at a range of inhibitor concentrations using software routines as implemented in the GraphPad Prism software package.

[3] = biological target: T2, unphosphorylated PDGFRβ kinase (uPDGFRβ, Seq. ID No. 3) (Homo sapiens, UniProt P09619); experiment: Unphosphorylated PDGFRβ kinase assay (pyruvate kinase/lactate dehydrogenase coupled); assay type: biochemical; conditions: ATP 500 μM
T2 construct: purchased DeCode
Excerpt: Unphosyhorylated PDGFRβ (uPDGFRβkinase (Seq. ID No. 3) assay

[4] = biological target: T3, phospho-FMS in THP-1 cells (Homo sapiens, UniProt P07333); experiment: Phospho-FMS ELISA assay in THP-1 cells; assay type: cell-based; conditions: 4 hours compound, M-CSF stimulated; read-out: pFMS inhibition in THP-1 cells
T3 construct: endogenous in cells; host or cells: THP-1 (ATCC TIB-202)

[5] = test system: U251-luc human glioma carcinoma; experiment: U251 intra-cerebro-ventricular implant in mice with fractionated head radiation; assay type: in vivo, mouse; conditions: 30 mg/kg twice daily, 10 days post irradiation, compared to vehicle treated control
Procedure: U251 Intra-Cerebro-Ventricular Implant in Mice To evaluate in vivo anti-cancer activity compounds of formula I in combination with fractionated, localized head radiation, an orthotopic U251-luc (Luc) human glioma carcinoma model in female outbred nu/nu mice was employed. Briefly, U251 cells were obtained from the ATCC and altered to be luciferase expressing. They were grown in RPMI 1640 Media supplemented with 10% FBS and 1% PSG. The growth environment was maintained in an incubator with a 5% CO2 atmosphere at 37° C. Female Harlan Nude mice (Hsd:AthymicNude-Fox1nu) 8-9 weeks old were used in this study. Test animals were implanted intracranially with U251-luc (LucmCherry) cells. Briefly, animals were injected subcutaneously with 5 mg/kg carprofen and anesthetized using 2% isoflurane in air. The animals were then secured in a stereotaxic frame (ASIinstruments, Inc.) and a hole drilled 2 mm right lateral, 1 mm anterior to the coronal suture. The cell suspension (stored on wet ice) was mixed thoroughly and drawn up into a 50 μL syringe. The syringe needle was centered over the burr hole and lowered 3 mm into the brain and retracted 1 mm to form a “reservoir” for the deposition of the cell suspension. […] Images were analyzed using Living Image (Xenogen, Alameda, Calif.) software. The BLI signal in the brain was calculated with a fixed area ROI to estimate the tumor burden. […]

T2 sequence (P09619 557-1105): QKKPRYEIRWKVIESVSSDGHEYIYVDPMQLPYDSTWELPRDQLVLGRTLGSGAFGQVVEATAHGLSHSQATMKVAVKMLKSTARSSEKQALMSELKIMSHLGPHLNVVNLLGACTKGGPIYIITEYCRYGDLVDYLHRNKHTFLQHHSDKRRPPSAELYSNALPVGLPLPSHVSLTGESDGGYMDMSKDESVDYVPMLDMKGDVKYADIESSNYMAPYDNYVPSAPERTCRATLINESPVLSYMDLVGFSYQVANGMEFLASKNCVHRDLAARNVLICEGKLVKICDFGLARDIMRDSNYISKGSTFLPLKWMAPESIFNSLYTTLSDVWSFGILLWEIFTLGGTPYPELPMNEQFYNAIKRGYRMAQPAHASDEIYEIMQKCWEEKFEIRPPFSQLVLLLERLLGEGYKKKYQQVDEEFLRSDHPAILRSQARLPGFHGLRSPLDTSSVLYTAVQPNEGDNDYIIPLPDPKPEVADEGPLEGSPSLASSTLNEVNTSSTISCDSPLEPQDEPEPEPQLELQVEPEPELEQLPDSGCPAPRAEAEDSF
T3 sequence (P07333 20-972): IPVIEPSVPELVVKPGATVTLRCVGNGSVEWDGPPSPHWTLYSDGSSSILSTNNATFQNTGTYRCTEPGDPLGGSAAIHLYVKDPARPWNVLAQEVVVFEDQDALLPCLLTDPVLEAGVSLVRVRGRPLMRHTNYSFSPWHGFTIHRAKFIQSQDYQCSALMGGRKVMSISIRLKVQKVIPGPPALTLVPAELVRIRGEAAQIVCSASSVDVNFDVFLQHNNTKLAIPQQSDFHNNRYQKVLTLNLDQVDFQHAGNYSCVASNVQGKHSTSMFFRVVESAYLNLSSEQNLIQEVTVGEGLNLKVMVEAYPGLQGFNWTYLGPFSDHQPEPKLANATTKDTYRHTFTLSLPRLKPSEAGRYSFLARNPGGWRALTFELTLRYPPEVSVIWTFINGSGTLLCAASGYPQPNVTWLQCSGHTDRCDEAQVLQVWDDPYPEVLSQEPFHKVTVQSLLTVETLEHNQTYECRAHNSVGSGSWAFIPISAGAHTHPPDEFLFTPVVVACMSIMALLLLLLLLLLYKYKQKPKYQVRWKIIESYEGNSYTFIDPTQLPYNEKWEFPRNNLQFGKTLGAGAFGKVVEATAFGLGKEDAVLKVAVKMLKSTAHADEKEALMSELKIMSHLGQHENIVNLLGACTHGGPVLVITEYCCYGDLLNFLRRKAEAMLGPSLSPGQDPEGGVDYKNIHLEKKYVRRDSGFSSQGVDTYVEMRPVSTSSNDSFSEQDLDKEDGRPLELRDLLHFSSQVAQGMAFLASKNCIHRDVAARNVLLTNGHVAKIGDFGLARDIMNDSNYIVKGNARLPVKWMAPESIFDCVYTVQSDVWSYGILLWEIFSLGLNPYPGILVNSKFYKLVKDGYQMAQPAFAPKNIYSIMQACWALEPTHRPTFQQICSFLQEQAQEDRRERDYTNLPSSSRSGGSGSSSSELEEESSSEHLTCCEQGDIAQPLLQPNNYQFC

IC50 [2]: < 10 nM | IC50 [3]: 100 to 1000 nM | IC50 [4]: < 10 nM
Structure (SMILES): CN1CCN(C(=O)Nc2cc(Oc3ccc(NC(=O)NC(=O)C(C)(C)C)nc3)ccn2)CC1 [Example 45, 4-methyl-N-(4-((6-(3-pivaloylureido)pyridin-3-yl)oxy)pyridin-2-yl)piperazine-1-carboxamide]
IC50 [1]: < 10 nM | reduction in tumor re-growth [5]: 80%
